# Assay results published in patent US12168003B2, “Selective inhibition of T follicular helper cells for treatment of autoimmune disorders” (priority 2019, dated 2024).
# Test system: eIF4E
# Assay: Silencing of eIF4E in OT2 T cells by lentivirus shRNA, adoptive transfer and OVA/Alum
# Type: in vivo, mouse
# Protocol: HEK 293T cells were transfected with pTRIPZ plasmid expressing NS shRNA ([…] (SEQ ID NO: 5)) or eIF4E shRNA ([…] (SEQ ID NO: 6)) along with psPAX2 and pMD2.G in Lipofectamine™ 2000 and Opti-MEM®. Supernatant was collected 48 hours later and centrifuged at 3000×g for 15 minutes at room temperature. Cell debris pellet was discarded and supernatant was incubated with PEG-it™ (System Biosciences) at 4° C. for 24 to 48 hours and then centrifuged for 1500×g for 30 minutes at 4° C. Supernatant was discarded and viral pellet was resuspended in cold PBS and frozen at −80° C. until use.
# CD4^+ T cells were isolated (EasySep™ CD4^+ T cell isolation; StemCell) from OT2 mice (>95% Vβ5.1/5.2) using negative selection. OT2 T cells were activated in mouse T cell media (RPMI containing 10% FBS, 55 μM 2-ME, 25 mM HEPES, 100 uM Sodium pyruvate, 2 mM Glutamax, non-essential amino acids, 100 U/mL penicillin, and 100 μg/mL streptomycin) and soluble 1 μg/mL anti-CD28 with 50 U/mL IL-2 on plates coated with 10 μg/mL anti-CD3 for 3 days. Following activation, cells were spin-transfected at 3×10^6 cells in 1 mL in 6-well plates with lentivirus and 4 μg/mL dextran (Sigma D9885) at 2,000×g for 60 minutes at 30° C. with no acceleration or break (Kurachi et al., “Optimized Retroviral Transduction of Mouse T Cells for in Vivo Assessment of Gene Function,” Nat. Protoc. 12(9):1980-1998 (2017), which is hereby incorporated by reference in its entirety). Following spinoculation, cells were centrifuged and supernatant was decanted and replaced with fresh media. The next day (day 5) 2 μg/mL puromycin (Gibco) and PMA/ionomycin (BioLegend®) are added to the T cells and incubated for 3 days. On day 8, media was replaced and cells were incubated with PMA/ionomycin again for another 3 days. On day 10, it was confirmed that control cells not transfected with virus were >98% dead and 1.5×10^6 OT2 NS or OT2 eIF4Esh were transferred i.p. to CD45.1 mice. One day following adoptive transfer, mice were placed on doxycycline diet (200 mg/kg) and remained on this diet for the entire study. […]
sequence,measurement,setting,value
"GCGTCAAGCAATCGAGATTTG (SEQ ID NO: 6) (expressed or natural sequence) [eIF4E shRNA, doxycycline-inducible eIF4E shRNA expressed from pTRIPZ lentivirus in OT2 T cells]",eIF4E silencing in spleen and blood transduced OT2 T cells (lower eIF4E level),"Dox-inducible shRNA, seven days following Dox addition, vs NS shRNA",3 fold
same,fewer TFH cells formed by OT2 T cells,"day 15 post-transfer, OVA/Alum, vs control NS OT2 cells",3 fold
same,level of OT2 T cells in the spleen,"day 15 post-transfer, vs NS OT2 cells",no impact
